Data taken from patent publication US20130217694A1, “METHOD OF REDUCING THE SEVERITY OF INFLAMMATORY DERMATOLOGICAL CONDITIONS” (Allergan, Inc.., priority 2003, published 2013).
“Also recorded” adds a separate entry of the source.

Tests used:
mice [1] = assay: Sulprostone-induced tactile hypersensitivity in mice; format: in vivo, mouse; settings: for analgesic activity in sulprostone-induced tactile hypersensitivity: result in words
Procedure: The activity of a synthetic EP1/EP3 receptor-selective prostaglandin agonist, sulprostone, also was assayed.
(§1) Spinal drug injections were performed as follows. […] Briefly, a sterile 30-gauge ½ inch needle attached to a microsyringe was inserted between the L5 and L6 vertebrae. The mouse was held firmly by the pelvic girdle in one hand, while the syringe was held in the other hand at an angle of approximately 20° above the vertebral column. The needle was inserted into the tissue to one side of the L6 spinous process, into the groove between the spinous and transverse processes. The needle angle was decreased to about 10°, and the needle slowly advanced forward into the intervertebral space until a pop was felt and there was a visible serpentine tail movement. Compounds were slowly injected in the subarachnoid space in a volume of 5 μl. Each compound was tested at multiple doses. The minimal efficacious dose was used for all subsequent experiments.
(§2) Sensitivity to light touch was quantified by scoring the response of mice to light stroking of their flanks with a small paintbrush, which is not normally painful. […] Statistical calculations of significance for in vivo studies were done using a two-tailed Students t-test.

mice [2] = assay: NMDA-induced tactile hypersensitivity in mice; format: in vivo, mouse; settings: result in words
Procedure: as §1, §2

human α-2C receptor = target: T1, human α-2C receptor (Homo sapiens, UniProt P18825); assay: Inhibition of forskolin-induced cAMP accumulation in PC12 cells expressing human α-2C receptor; format: cell-based; settings: percent efficacy relative to brimonidine
T1 construct: expressed in transfected cells; host or cells: PC12 cells (retroviral vector pCL BABE Puro)
T1 sequence (P18825 1-462): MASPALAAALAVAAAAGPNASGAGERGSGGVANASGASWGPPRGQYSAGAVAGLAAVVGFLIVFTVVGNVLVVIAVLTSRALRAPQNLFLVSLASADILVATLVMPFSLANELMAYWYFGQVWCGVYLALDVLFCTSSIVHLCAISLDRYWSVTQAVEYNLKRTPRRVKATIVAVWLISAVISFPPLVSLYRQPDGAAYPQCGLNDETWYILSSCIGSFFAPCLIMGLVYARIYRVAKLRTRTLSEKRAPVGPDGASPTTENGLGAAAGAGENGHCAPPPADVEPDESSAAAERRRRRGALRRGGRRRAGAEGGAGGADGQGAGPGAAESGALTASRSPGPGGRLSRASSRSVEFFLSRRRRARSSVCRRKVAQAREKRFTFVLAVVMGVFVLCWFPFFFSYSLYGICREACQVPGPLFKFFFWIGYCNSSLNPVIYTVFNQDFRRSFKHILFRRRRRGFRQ
Procedure: The human α-2A and α-2C receptor supernatants were added, in varying amounts, to naive PC12 cells, which were then incubated for 48 hours. The transduced cell populations were replated at a lower density and grown in media containing 100 ug/ml puromycin.
Intracellular cAMP measurement was performed as follows. PC12 cells stably expressing the human α-2A or human α-2C adrenergic receptors were plated in 96-well poly-D-lysine coated plates at a density of 30,000 cells per well in 100 μl DMEM supplemented with 10% horse serum, 5% heat inactivated fetal bovine serum, 1% antibiotic-antimycotic and 100 μg/ml puromycin. Cells were grown overnight at 37° C. and 5% CO2. Cells were dosed by adding an equal volume of media containing IBMX (to a final concentration of 1 mM), forskolin (to a final concentration of 10 μM) and the appropriate drug dilution (to a final concentration of between 10^−5 M and 10^−12 M). After a 10 minute incubation, the media was aspirated and the cells lysed with 200 μl lysis buffer (Amersham Biosciences; Piscataway, N.J.). Plates were stored at −20° C. for up to 24 hours prior to assay. Intracellular cAMP was determined using the Biotrak cAMP enzyme immunoassay system (Amersham Biosciences) according to the manufacturer's instructions. Plates were read on a plate reader at 450 nm.

[3] = target: T2, hamster α-1B adrenergic receptor (Mesocricetus auratus, UniProt P18841); format: cell-based; settings: for hamster α1B % E: percent efficacy relative to phenylephrine; for agonist activity at the α-1B receptor: result in words
T2 sequence (P18841 1-515): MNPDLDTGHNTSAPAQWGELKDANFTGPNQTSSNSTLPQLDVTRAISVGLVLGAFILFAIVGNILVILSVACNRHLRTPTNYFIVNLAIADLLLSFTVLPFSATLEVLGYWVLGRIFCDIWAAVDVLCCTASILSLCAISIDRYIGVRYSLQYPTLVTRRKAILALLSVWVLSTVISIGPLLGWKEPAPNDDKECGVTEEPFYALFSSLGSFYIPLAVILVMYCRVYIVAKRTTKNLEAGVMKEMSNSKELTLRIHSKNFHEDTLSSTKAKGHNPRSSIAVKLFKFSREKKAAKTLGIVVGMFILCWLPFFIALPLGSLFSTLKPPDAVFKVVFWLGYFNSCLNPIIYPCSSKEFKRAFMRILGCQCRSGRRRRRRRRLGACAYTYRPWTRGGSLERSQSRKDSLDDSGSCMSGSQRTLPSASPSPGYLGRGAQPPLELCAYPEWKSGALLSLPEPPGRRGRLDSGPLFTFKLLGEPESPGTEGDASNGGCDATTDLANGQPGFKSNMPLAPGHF
Procedure: The bovine α-1A and hamster α-1B receptor supernatants were added, in varying amounts, to naive HEK293 cells, which were then incubated for 48 hours. The transduced cell populations were replated at a lower density and grown in media containing 0.25 ug/ml puromycin. […] Receptor density was measured in a prazosin radioligand binding assay.
Intracellular Ca^+2 responses were measured as follows in HEK293 cells stably expressing either the bovine α-1A or hamster α-1B adrenergic receptor. Between 40,000 to 50,000 cells were plated per well in 96-well poly-D-lysine coated plates in 0.2 ml DMEM containing 10% heat-inactivated fetal calf serum, 1% antibiotic-antimycotic and 0.25 μg/ml puromycin one day prior to use. Cells were washed twice with HBSS supplemented with 10 mM HEPES, 2.0 mM CaCl2 and 2.5 mM probenicid, and subsequently incubated at 37° C. for 60 minutes with 4 μM Fluo-4 (Molecular Probes; Eugene, Oreg.). The extracellular dye was washed from the plates twice prior to placing the plates in the fluorometric imaging plate reader (FLIPR; Molecular Devices; Sunnyvale, Calif.). Ligands were diluted in HBSS and aliquoted into a 96-well microplate. Drugs were tested over the concentration range of 0.64 nM to 10,000 nM. Data for Ca^+2 responses were obtained in arbitrary fluorescence units.

Row | SMILES | analgesic activity in sulprostone-induced tactile hypersensitivity (mice [1]; wildtype mice) | analgesic activity in sulprostone-induced tactile hypersensitivity (mice [1]; α-2A knockout mice) | analgesic activity in sulprostone-induced tactile hypersensitivity (mice [1]; α-2C knockout mice) | inhibition of NMDA-induced tactile hypersensitivity (mice [2]; wildtype mice) | inhibition of NMDA-induced tactile hypersensitivity (mice [2]; α-2A knockout mice) | inhibition of NMDA-induced tactile hypersensitivity (mice [2]; α-2C knockout mice) | human α2C % E (human α-2C receptor) [%] | hamster α1B % E [3] [%] | agonist activity at the α-1B receptor [3] | analgesic activity of clonidine co-administered with prazosin (mice [1]; α-2C knockout mice, prazosin 100 ng/kg i.p., clonidine 400 ng i.t., sulprostone 200 ng i.t.)
1 | Brc1c(NC2=NCCN2)ccc2nccnc12 [Brimonidine, 5-bromo-6-(2-imidazolin-2-ylamino)quinoxaline] | analgesic | neither clonidine nor brimonidine were analgesic | analgesic | complete inhibition of tactile hypersensitivity | neither clonidine nor brimonidine inhibited | complete inhibition of tactile hypersensitivity | 93 | 12 | no activity | –
2 | Clc1cccc(Cl)c1N=C1NCCN1 [Clonidine] | analgesic in wildtype mice; also recorded: analgesic in wild type mice | not in α-2A or α-2C knockout mice; also recorded: neither clonidine nor brimonidine were analgesic | not in α-2A or α-2C knockout mice; also recorded: not in α-2C knockout mice | complete inhibition of tactile hypersensitivity | neither clonidine nor brimonidine inhibited | complete inhibition of tactile hypersensitivity | 84 | 63 | partial agonists | restore the analgesic activity
